According to ChEMBL document CHEMBL3045059, “Efficacy of ketoenols on insecticide resistant field populations of two-spotted spider mite Tetranychus urticae and sweet potato whitefly Bemisia tabaci from Greece” (2012):
≈ marks a conversion by molar mass, not a printed value.

How the values were obtained:
Type in all cases: functional
Tetranychus urticae [1] = test: Resistance ratio, ratio of LC50 for larvae of Tetranychus urticae (two-spotted spider mite) mixed strain ALL-14 selected with spirodiclofen for 14 generations to LC50 for larvae of Tetranychus urticae (two-spotted spider mite) laboratory strain SAMB measured after 6 days
Tetranychus urticae [2] = test: Resistance ratio, ratio of LC50 for larvae of Tetranychus urticae (two-spotted spider mite) greenhouse population TU7 to LC50 for larvae of Tetranychus urticae laboratory strain SAMB measured after 6 days
Tetranychus urticae [3] = test: Resistance ratio, ratio of LC50 for larvae of Tetranychus urticae (two-spotted spider mite) greenhouse population TU11 to LC50 for larvae of Tetranychus urticae laboratory strain SAMB measured after 6 days
Tetranychus urticae [4] = test: Resistance ratio, ratio of LC50 for larvae of Tetranychus urticae (two-spotted spider mite) greenhouse population TU9 to LC50 for larvae of Tetranychus urticae laboratory strain SAMB measured after 6 days
Tetranychus urticae [5] = test: Resistance ratio, ratio of LC50 for larvae of Tetranychus urticae (two-spotted spider mite) field population TU4 to LC50 for larvae of Tetranychus urticae laboratory strain SAMB measured after 6 days
Tetranychus urticae [6] = test: Resistance ratio, ratio of LC50 for larvae of Tetranychus urticae (two-spotted spider mite) greenhouse population TU3 to LC50 for larvae of Tetranychus urticae laboratory strain SAMB measured after 6 days
Tetranychus urticae [7] = test: Resistance ratio, ratio of LC50 for larvae of Tetranychus urticae (two-spotted spider mite) field population TU12 to LC50 for larvae of Tetranychus urticae laboratory strain SAMB measured after 6 days
Tetranychus urticae [8] = test: Resistance ratio, ratio of LC50 for larvae of Tetranychus urticae (two-spotted spider mite) greenhouse population TU5 to LC50 for larvae of Tetranychus urticae laboratory strain SAMB measured after 6 days
Tetranychus urticae [9] = test: Resistance ratio, ratio of LC50 for larvae of Tetranychus urticae (two-spotted spider mite) field population TU2 to LC50 for larvae of Tetranychus urticae laboratory strain SAMB measured after 6 days
Tetranychus urticae [10] = test: Resistance ratio, ratio of LC50 for larvae of Tetranychus urticae (two-spotted spider mite) greenhouse population TU1 to LC50 for larvae of Tetranychus urticae laboratory strain SAMB measured after 6 days
Tetranychus urticae [11] = test: Resistance ratio, ratio of LC50 for larvae of Tetranychus urticae (two-spotted spider mite) field population TU6 to LC50 for larvae of Tetranychus urticae laboratory strain SAMB measured after 6 days
Tetranychus urticae [12] = test: Resistance ratio, ratio of LC50 for larvae of Tetranychus urticae (two-spotted spider mite) laboratory strain GSS to LC50 for larvae of Tetranychus urticae laboratory strain SAMB measured after 6 days
Tetranychus urticae [13] = test: Acaricidal activity against larvae of Tetranychus urticae (two-spotted spider mite) mixed strain ALL-14 selected with spirodiclofen for 14 generations in bean leaves assessed as mortality by applying constant selection pressure under laboratory conditions
Tetranychus urticae [14] = test: Acaricidal activity against larvae of Tetranychus urticae (two-spotted spider mite) greenhouse population TU7 in bean leaves assessed as mortality applied at 1 bar pressure measured after 6 days
Tetranychus urticae [15] = test: Acaricidal activity against larvae of Tetranychus urticae (two-spotted spider mite) greenhouse population TU11 in bean leaves assessed as mortality applied at 1 bar pressure measured after 6 days
Tetranychus urticae [16] = test: Acaricidal activity against larvae of Tetranychus urticae (two-spotted spider mite) greenhouse population TU9 in bean leaves assessed as mortality applied at 1 bar pressure measured after 6 days
Tetranychus urticae [17] = test: Acaricidal activity against larvae of Tetranychus urticae (two-spotted spider mite) field population TU4 in bean leaves assessed as mortality applied at 1 bar pressure measured after 6 days
Tetranychus urticae [18] = test: Acaricidal activity against larvae of Tetranychus urticae (two-spotted spider mite) greenhouse population TU3 in bean leaves assessed as mortality applied at 1 bar pressure measured after 6 days
Tetranychus urticae [19] = test: Acaricidal activity against larvae of Tetranychus urticae (two-spotted spider mite) field population TU12 in bean leaves assessed as mortality applied at 1 bar pressure measured after 6 days
Tetranychus urticae [20] = test: Acaricidal activity against larvae of Tetranychus urticae (two-spotted spider mite) greenhouse population TU5 in bean leaves assessed as mortality applied at 1 bar pressure measured after 6 days
Tetranychus urticae [21] = test: Acaricidal activity against larvae of Tetranychus urticae (two-spotted spider mite) field population TU2 in bean leaves assessed as mortality applied at 1 bar pressure measured after 6 days
Tetranychus urticae [22] = test: Acaricidal activity against larvae of Tetranychus urticae (two-spotted spider mite) greenhouse population TU1 in bean leaves assessed as mortality applied at 1 bar pressure measured after 6 days
Tetranychus urticae [23] = test: Acaricidal activity against larvae of Tetranychus urticae (two-spotted spider mite) field population TU6 in bean leaves assessed as mortality applied at 1 bar pressure measured after 6 days
Tetranychus urticae [24] = test: Acaricidal activity against larvae of Tetranychus urticae (two-spotted spider mite) laboratory strain GSS in bean leaves assessed as mortality applied at 1 bar pressure measured after 6 days
Tetranychus urticae [25] = test: Acaricidal activity against larvae of Tetranychus urticae (two-spotted spider mite) laboratory strain SAMB in bean leaves assessed as mortality applied at 1 bar pressure measured after 6 days

## CCC(C)(C)C(=O)OC1=C(c2ccc(Cl)cc2Cl)C(=O)OC12CCCCC2 [SPIRODICLOFEN]
Tetranychus urticae [1]
  RatioLC50: 4.3
Tetranychus urticae [2]
  RatioLC50: 12
Tetranychus urticae [3]
  RatioLC50: 3.9
Tetranychus urticae [4]
  RatioLC50: 2.2
Tetranychus urticae [5]
  RatioLC50: 1.1
Tetranychus urticae [6]
  RatioLC50: 0.7
Tetranychus urticae [7]
  RatioLC50: 2.5
Tetranychus urticae [8]
  RatioLC50: 1.1
Tetranychus urticae [9]
  RatioLC50: 1.4
Tetranychus urticae [10]
  RatioLC50: 1.2
Tetranychus urticae [11]
  RatioLC50: 0.2
Tetranychus urticae [12]
  RatioLC50: 0.6
Tetranychus urticae [13]
  LC95: 32.1 µg/mL (≈ 78 µM)
Tetranychus urticae [13]; Tetranychus urticae, mixed strain ALL-14
  LC50: 9.5 µg/mL (≈ 23.1 µM)
Tetranychus urticae [14]
  LC95: 87.7 µg/mL (≈ 213 µM)
Tetranychus urticae [14]; Tetranychus urticae, TU7, 144 h
  LC50: 27 µg/mL (≈ 65.6 µM)
Tetranychus urticae [15]
  LC95: 46.1 µg/mL (≈ 112 µM)
Tetranychus urticae [15]; Tetranychus urticae, TU11, 144 h
  LC50: 8.7 µg/mL (≈ 21.2 µM)
Tetranychus urticae [16]
  LC95: 43.4 µg/mL (≈ 106 µM)
Tetranychus urticae [16]; Tetranychus urticae, TU9, 144 h
  LC50: 5 µg/mL (≈ 12.2 µM)
Tetranychus urticae [17]
  LC95: 8 µg/mL (≈ 19.4 µM)
Tetranychus urticae [17]; Tetranychus urticae, TU4, 144 h
  LC50: 2.5 µg/mL (≈ 6.08 µM)
Tetranychus urticae [18]
  LC95: 5 µg/mL (≈ 12.2 µM)
Tetranychus urticae [18]; Tetranychus urticae, TU3, 144 h
  LC50: 1.6 µg/mL (≈ 3.89 µM)
Tetranychus urticae [19]
  LC95: 23.8 µg/mL (≈ 57.9 µM)
Tetranychus urticae [19]; Tetranychus urticae, TU12, 144 h
  LC50: 5.5 µg/mL (≈ 13.4 µM)
Tetranychus urticae [20]
  LC95: 4.6 µg/mL (≈ 11.2 µM)
Tetranychus urticae [20]; Tetranychus urticae, TU5, 144 h
  LC50: 2.5 µg/mL (≈ 6.08 µM)
Tetranychus urticae [21]
  LC95: 18.6 µg/mL (≈ 45.2 µM)
Tetranychus urticae [21]; Tetranychus urticae, TU2, 144 h
  LC50: 3.2 µg/mL (≈ 7.78 µM)
Tetranychus urticae [22]
  LC95: 17.9 µg/mL (≈ 43.5 µM)
Tetranychus urticae [22]; Tetranychus urticae, TU1, 144 h
  LC50: 2.7 µg/mL (≈ 6.56 µM)
Tetranychus urticae [23]
  LC95: 2.3 µg/mL (≈ 5.59 µM)
Tetranychus urticae [23]; Tetranychus urticae, TU6, 144 h
  LC50: 0.5 µg/mL (≈ 1.22 µM)
Tetranychus urticae [24]
  LC95: 4 µg/mL (≈ 9.72 µM)
Tetranychus urticae [24]; Tetranychus urticae, GSS, 144 h
  LC50: 1.4 µg/mL (≈ 3.4 µM)
Tetranychus urticae [25]
  LC95: 7.8 µg/mL (≈ 19 µM)
Tetranychus urticae [25]; Tetranychus urticae, SAMB, 144 h
  LC50: 2.2 µg/mL (≈ 5.35 µM)
